# Test results: PubChem BioAssay AID330 (DTP/NCI, 2004)
# Where “and” joins values, the source holds several entries; their conditions need not be identical. Identical values can stand only once. Inconclusive results and toxic doses are left out.
# Test system: P388 leukemia ip, CD2F1 mice, survival T/C
# Assay: NCI In Vivo Anticancer Drug Screen. Data for tumor model P388 Leukemia (intraperitoneal) in CD2F1 (CDF1) mice
# Conditions: endpoint: median survival time, higher = longer survival
# Method in brief: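 Mice carrying the transplanted tumor received test compound or vehicle. Survival was recorded in each group, and the value is the treated-group measurement divided by that of the vehicle-treated control group.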
# [1] = dose: 100.0 mg/kg/injection, schedule: Q04DX002 (ip), vehicle: saline
# [2] = dose: 100.0 mg/kg/injection, schedule: Q01DX009 (ip), vehicle: saline with Tween-80
# [3] = dose: 100.0 mg/kg/injection, schedule: Q04DX003 (ip), vehicle: saline with Tween-80
# [4] = dose: 200.0 mg/kg/injection, schedule: Q04DX003 (ip), vehicle: saline with Tween-80
# [5] = dose: 60.0 mg/kg/injection, schedule: Q01DX005 (ip), vehicle: saline with Tween-80
# [6] = dose: 120.0 mg/kg/injection, schedule: Q01DX005 (ip), vehicle: saline with Tween-80
# [7] = dose: 240.0 mg/kg/injection, schedule: Q01DX005 (ip), vehicle: saline with Tween-80
# [8] = dose: 50.0 mg/kg/injection, schedule: Q01DX009 (ip), vehicle: saline
# [9] = dose: 100.0 mg/kg/injection, schedule: Q01DX009 (ip), vehicle: saline
compound,measurement,setting,value
COc1cc([C@@H]2c3cc4c(cc3[C@@H](OC3OC5CO[C@@H](c6cccs6)OC5C(O)C3O)[C@H]3COC(=O)[C@H]23)OCO4)cc(OC)c1O (stereo partly specified),T/C,"dose: 0.25 mg/kg/injection, schedule: Q01DX009 (ip), vehicle: saline",170 % of control
same,T/C,"dose: 0.5 mg/kg/injection, schedule: Q01DX009 (ip), vehicle: saline",208 % of control
same,T/C,"dose: 0.75 mg/kg/injection, schedule: Q01DX005 (iv), vehicle: saline",100 % of control
same,T/C,"dose: 1.0 mg/kg/injection, schedule: Q01DX009 (ip), vehicle: saline",261 % of control
same,T/C,"dose: 1.5 mg/kg/injection, schedule: Q01DX005 (iv), vehicle: saline",104 % of control
same,T/C,"dose: 2.0 mg/kg/injection, schedule: Q01DX005 (ip), vehicle: saline",155 % of control
same,T/C,"dose: 2.0 mg/kg/injection, schedule: Q01DX009 (ip), vehicle: saline",157 % of control and 449 % of control
same,T/C,"dose: 3.0 mg/kg/injection, schedule: Q01DX005 (iv), vehicle: saline",99 % of control
same,T/C,"dose: 3.24 mg/kg/injection, schedule: Q04DX003 (ip), vehicle: clinical formulation",225 % of control
same,T/C,"dose: 3.89 mg/kg/injection, schedule: Q04DX003 (ip), vehicle: saline",166 % of control
same,T/C,"dose: 4.0 mg/kg/injection, schedule: Q01DX005 (ip), vehicle: saline",166 % of control
same,T/C,"dose: 5.4 mg/kg/injection, schedule: Q04DX003 (ip), vehicle: clinical formulation",239 % of control
same,T/C,"dose: 6.0 mg/kg/injection, schedule: Q01DX005 (ip), vehicle: saline",167 % of control
same,T/C,"dose: 6.0 mg/kg/injection, schedule: Q01DX005 (iv), vehicle: saline",116 % of control
same,T/C,"dose: 6.48 mg/kg/injection, schedule: Q04DX003 (ip), vehicle: clinical formulation",170 % of control
same,T/C,"dose: 6.48 mg/kg/injection, schedule: Q04DX003 (ip), vehicle: saline",163 % of control
same,T/C,"dose: 7.78 mg/kg/injection, schedule: Q04DX003 (ip), vehicle: saline",175 % of control
same,T/C,"dose: 8.0 mg/kg/injection, schedule: Q01DX005 (ip), vehicle: saline",222 % of control
same,T/C,"dose: 9.0 mg/kg/injection, schedule: Q04DX003 (ip), vehicle: clinical formulation",371 % of control
same,T/C,"dose: 10.8 mg/kg/injection, schedule: Q04DX003 (ip), vehicle: clinical formulation",203 % of control
same,T/C,"dose: 10.8 mg/kg/injection, schedule: Q04DX003 (ip), vehicle: saline",211 % of control
same,T/C,"dose: 13.0 mg/kg/injection, schedule: Q04DX002 (ip), vehicle: saline",168 % of control
same,T/C,"dose: 13.0 mg/kg/injection, schedule: Q04DX003 (ip), vehicle: saline",194 % of control
same,T/C,"dose: 15.0 mg/kg/injection, schedule: Q04DX003 (ip), vehicle: clinical formulation",371 % of control
same,T/C,"dose: 16.0 mg/kg/injection, schedule: Q01DX005 (ip), vehicle: saline",206 % of control
same,T/C,"dose: 18.0 mg/kg/injection, schedule: Q04DX003 (ip), vehicle: clinical formulation",252 % of control
same,T/C,"dose: 18.0 mg/kg/injection, schedule: Q04DX003 (ip), vehicle: saline",211 % of control
same,T/C,"dose: 21.6 mg/kg/injection, schedule: Q04DX002 (ip), vehicle: saline",171 % of control
same,T/C,"dose: 21.6 mg/kg/injection, schedule: Q04DX003 (ip), vehicle: saline",203 % of control
same,T/C,"dose: 25.0 mg/kg/injection, schedule: Q04DX003 (ip), vehicle: clinical formulation",287 % of control
same,T/C,"dose: 30.0 mg/kg/injection, schedule: Q04DX003 (ip), vehicle: clinical formulation",211 % of control
same,T/C,"dose: 30.0 mg/kg/injection, schedule: Q04DX003 (ip), vehicle: saline",257 % of control
same,T/C,"dose: 36.0 mg/kg/injection, schedule: Q04DX003 (ip), vehicle: saline",296 % of control
same,T/C,"dose: 60.0 mg/kg/injection, schedule: Q04DX002 (ip), vehicle: saline",198 % of control
same,T/C,"dose: 60.0 mg/kg/injection, schedule: Q04DX003 (ip), vehicle: saline",296 % of control
same,T/C,[1],217 % of control
C=CCSc1ncnc2nc[nH]c12,T/C,"dose: 50.0 mg/kg/injection, schedule: Q01DX009 (ip), vehicle: saline with Tween-80",100 % of control
same,T/C,[2],109 % of control
same,T/C,[3],104 % of control
same,T/C,[4],104 % of control
O=C(c1ccccc1)c1cc([N+](=O)[O-])cc([N+](=O)[O-])c1,T/C,[2],104 % of control
same,T/C,"dose: 200.0 mg/kg/injection, schedule: Q01DX009 (ip), vehicle: saline with Tween-80",97 % of control
same,T/C,"dose: 400.0 mg/kg/injection, schedule: Q01DX009 (ip), vehicle: saline with Tween-80",97 % of control
COC(=O)c1nnc(C(=O)OC)c2c1c1ccccc1n2C(=O)c1ccccc1,T/C,[5],105 % of control
same,T/C,[6],93 % of control
same,T/C,[7],91 % of control
CC(=O)CC(C)O (stereo unspecified),T/C,[8],99 % of control
same,T/C,[9],89 % of control
same,T/C,"dose: 200.0 mg/kg/injection, schedule: Q01DX009 (ip), vehicle: saline",92 % of control
COCC1CCOC(C(C)C)O1 (stereo unspecified),T/C,"dose: 60.0 mg/kg/injection, schedule: Q01DX005 (ip), vehicle: saline",101 % of control
same,T/C,"dose: 120.0 mg/kg/injection, schedule: Q01DX005 (ip), vehicle: saline",100 % of control
same,T/C,"dose: 240.0 mg/kg/injection, schedule: Q01DX005 (ip), vehicle: saline",100 % of control
O=C(O)/C=C\C(=O)O,T/C,"dose: 1.5 mg/kg/injection, schedule: Q01DX009 (ip), vehicle: saline with Tween-80",95 % of control
same,T/C,"dose: 3.0 mg/kg/injection, schedule: Q01DX009 (ip), vehicle: saline with Tween-80",100 % of control
same,T/C,"dose: 6.0 mg/kg/injection, schedule: Q01DX009 (ip), vehicle: saline with Tween-80",109 % of control
same,T/C,"dose: 25.0 mg/kg/injection, schedule: Q01DX009 (ip), vehicle: saline",95 % of control
same,T/C,[8],104 % of control
same,T/C,[9],95 % of control
CN(C)CCC(OC(=O)C(c1ccccc1)c1ccccc1)c1ccccc1 (stereo unspecified),T/C,"dose: 50.0 mg/kg/injection, schedule: Q01DX005 (ip), vehicle: saline with Tween-80",101 % of control
same,T/C,"dose: 100.0 mg/kg/injection, schedule: Q01DX005 (ip), vehicle: saline with Tween-80",103 % of control
CC12CCC(OC3CCCCO3)CC1=CCC1C2CCC2(C)C(O)/C(=N\O)CC12 (stereo unspecified),T/C,[1],91 % of control
same,T/C,"dose: 200.0 mg/kg/injection, schedule: Q04DX002 (ip), vehicle: saline",94 % of control
same,T/C,"dose: 400.0 mg/kg/injection, schedule: Q04DX002 (ip), vehicle: saline",90 % of control
O=C(Cc1nc2cc(Cl)c(Cl)cc2nc1CC(=O)c1ccncc1)c1ccncc1,T/C,[5],93 % of control
same,T/C,[6],90 % of control
same,T/C,[7],90 % of control
O=C(CC(O)(C(F)(F)F)C(F)(F)F)c1ccc(Cl)cc1,T/C,"dose: 50.0 mg/kg/injection, schedule: Q04DX003 (ip), vehicle: saline with Tween-80",104 % of control
same,T/C,[3],100 % of control
same,T/C,[4],104 % of control
Cc1cc(C(=O)c2ccccc2)on1,T/C,"dose: 100.0 mg/kg/injection, schedule: Q04DX003 (ip), vehicle: Klucel (hydroxypropylcellulose) (HPC)",104 % of control
same,T/C,"dose: 200.0 mg/kg/injection, schedule: Q04DX003 (ip), vehicle: Klucel (hydroxypropylcellulose) (HPC)",100 % of control
same,T/C,"dose: 400.0 mg/kg/injection, schedule: Q04DX003 (ip), vehicle: Klucel (hydroxypropylcellulose) (HPC)",100 % of control
CNC(=O)Nc1ccccc1C(=O)NN,T/C,"dose: 25.0 mg/kg/injection, schedule: Q01DX009 (ip), vehicle: Klucel (hydroxypropylcellulose) (HPC)",100 % of control
same,T/C,"dose: 50.0 mg/kg/injection, schedule: Q01DX009 (ip), vehicle: Klucel (hydroxypropylcellulose) (HPC)",109 % of control
same,T/C,"dose: 100.0 mg/kg/injection, schedule: Q01DX009 (ip), vehicle: Klucel (hydroxypropylcellulose) (HPC)",105 % of control
same,T/C,"dose: 200.0 mg/kg/injection, schedule: Q01DX009 (ip), vehicle: Klucel (hydroxypropylcellulose) (HPC)",96 % of control
